Counter-ions that a name gives are not always drawn. Like-named read-outs stand apart in the source and are kept apart here.

In assay [1] the test system is cough response in male guinea-pigs. As to the kind of experiment: Antitussive activity in male guinea-pigs (electrically stimulated cough). Format: in vivo, guinea-pig. The settings on record: for inhibition in vivo at 10 mg/kg: Cavia porcellus, sc, 10 mg./kg. subcutaneously, cough tested at 30, 60 and 120 min, values of 30 or less not significantly different from saline controls, considered inactive or insufficiently active; for antitussive activity (in words): guinea pig, in vivo. The procedure:
Compounds of formula I, and homologous and analogous compounds, were also tested for antitussive activity in male guinea-pigs, using a modification of the procedure of Friebel and Hahn [Med. Pharmacol. exp., 14, 78 (1966)]. Under general anesthesia, two stainless steel wires (0.2 mm diameter), stripped of their enamel insulation at the points of contact with the trachea, were wrapped around the trachea about 8 mm apart and then threaded under the skin and out through the back of the neck, one on each side. After 24 hrs, test animals were placed in a clear plastic cage and the cough threshold was determined by means of electrical stimulation. The following stimulation parameters were used: delay -- 0.01 msec, duration -- 0.6 msec and frequency -- 300 Hz. The minimal voltage (range 60-120 V) necessary to elicit a cough in less than 6 sec was determined. Each guinea-pig was stimulated 5 times at 30 sec intervals employing the predrug stimulation parameters at 30, 60 and 120 min following drug administration. A test animal was considered to be protected if more than 6 sec were required to produce a cough. Compounds were administered at a dosage of 10 mg./kg. subcutaneously. The percent inhibition of cough response was calculated as follows: % Inhibition = (A-B)/(A) × 100 a = number of coughs requiring <6 sec. stimulation after saline. B = number of coughs requiring <6 sec. stimulation after drug.

For assay [2], the system named is phenylquinone-induced writhing in the mouse. The assay is described as follows: Phenylquinone-induced writhing test in the mouse. Type of assay: in vivo. The settings on record: for ED50: Mus musculus; for analgesic activity (in words): mouse, in vivo. The procedure:
Compounds of formula I, and homologous and analogous compounds, were tested for analgesic activity by means of the phenylquinone-induced writhing test in the mouse, using the known analgesic, nefopam (5 methyl-1-phenyl-3,4,5,6-tetrahydro-1H-2,5-benzoxazocine), as a comparison standard. The method used was essentially that described by Siegmund et al. [Proc. Soc. exp. Biol. N. Y. 95, 729 (1957)]. Compounds were administered either subcutaneously (15 min) or orally (25 min) prior to the intraperitoneal injection of phenylquinone (2 mg/kg). […] The dose which produced a 50 percent reduction in the number of writhes, as compared to the control group, was called the ED50.
BL-R845 and nefopam were compared in additional phenylquinone-induced writhing tests in the mouse and rat, by various routes of administration.
Background: An intraperitoneal irritant provokes the stretching counted in writhing tests.

For assay [3], the system named is phenylquinone-induced writhing in the rat. The assay is described as follows: Phenylquinone-induced writhing test in the rat. Type of assay: in vivo. The settings on record: Table 4, rats. From the text: BL-[…] and nefopam were compared in additional phenylquinone-induced writhing tests in the mouse and rat, by various routes of administration.
A further assay concerns rat tail flick. As to the kind of experiment: Rat tail flick (thermal analgesic test). Type of assay: in vivo. The settings on record: conventional thermal analgesic test. The source says: (§1) The analgesic profile for BL-[…] and nefopam resembles that of the narcotic antagonist analgesics rather than the narcotic drugs. […] Nevertheless,both BL-[…] and nefopam differ from the antagonist action of naloxone. […] These findings indicate that BL-[…] and nefopam act on different receptor sites from those affected by the antagonist analgesics.

In a further assay the test system is rodent writhing. The assay is described as follows: Rodent writhing tests. The settings on record: in vivo. The source says:
BL-[…] and nefopam were compared in additional phenylquinone-induced writhing tests in the mouse and rat, by various routes of administration. The analgesic profile for BL-[…] and nefopam resembles that of the narcotic antagonist analgesics rather than the narcotic drugs. […] Nevertheless,both BL-[…] and nefopam differ from the antagonist action of naloxone. […] These findings indicate that BL-[…] and nefopam act on different receptor sites from those affected by the antagonist analgesics.

A further assay deals with cough in dogs. As to the kind of experiment: Antitussive activity in the dog (method of Stefko and Benson). The settings on record: for ED50: Canis lupus familiaris.
Another assay has as its system mouse hot plate. The assay is described as follows: Mouse hot plate (thermal analgesic test). Format: in vivo. The settings on record: conventional thermal analgesic test.
Excerpt: as §1

Assay [4] concerns analgesic activity, naloxone antagonism. The assay is described as follows: Block of analgesic activity by naloxone. Format: in vivo. The settings on record: naloxone as antagonist.
Excerpt: as §1

Setting [5] is: sc, Table 1, s.c. 15 min before phenylquinone 2 mg/kg i.p., 50 percent reduction in number of writhes vs control, read-out: ED50.
Where [6] appears, read: oral, read-out: Phenylquinone-induced Writhing ED50, rats, oral.
The mark [7] stands for this setting: sc, subcutaneous, read-out: Phenylquinone-induced Writhing ED50, rats, subcutaneous.
Where [8] appears, read: po, read-out: ED50, antitussive, oral.
The mark [9] stands for this setting: sc, read-out: ED50, antitussive, s. c.
Setting [10] is: central, Table 4, mice, intraventricular, read-out: Phenylquinone-induced Writhing ED50, mice, intraventricular.
Where [11] appears, read: sc, Table 4, mice, subcutaneous, read-out: Phenylquinone-induced Writhing ED50, mice, subcutaneous.
Setting [12] is: Table 4, mice, oral, read-out: Phenylquinone-induced Writhing ED50, mice, oral.

The inhibition in vivo is how much of the control response was suppressed. A low value points to a response near the control. As a reminder, the ED50 is the midpoint of the dose-response relation. As to `CNCCN1CCOc2ccc(Cl)cc2C1c1ccccc1` (stereo not shown) [BL-5366, 7-Chloro-4-(2-methylaminoethyl)-5-phenyl-2,3,4,5-tetrahydro-1,4,-benzoxazepine dihydrochloride], in assay [1], testing at 10 mg/kg gave an inhibition in vivo of 0% and the “antitussive activity (in words)” value was “little or no such activity”. In addition, the 50% effective dose (ED50) in assay [2] (setting [5]) was found to be 13 mg/kg. Further, the “analgesic activity (in words)” value in assay [2] is reported as “little or no such activity”.
As for `CCN(CC)CCN1CCOc2ccc(Cl)cc2C1c1ccccc1.Cl.Cl` (stereo not shown) [BL-5372, 7-Chloro-4-(2-diethylaminoethyl)-5-phenyl-2,3,4,5-tetrahydro-1,4-benzoxazepine dihydrochloride], in assay [1], the inhibition in vivo at 10 mg/kg came to 0% and the “antitussive activity (in words)” value is “little or no such activity”. The ED50 in assay [2] (setting [5]) is 10 mg/kg. In addition, the “analgesic activity (in words)” value in assay [2] is “little or no such activity”.
In turn, `Cl.Cl.Clc1ccc2c(c1)C(c1ccccc1)N(CCN1CCCC1)CCO2` (stereo not shown) [BL-5397, 7-Chloro-4-(2-pyrrolidinoethyl)-5-phenyl-2,3,4,5-tetrahydro-1,4-benzoxazepine dihydrochloride] returned an inhibition in vivo at 10 mg/kg in assay [1] of 0%. For the same molecule, the ED50 in assay [2] (setting [5]) was 2.5 mg/kg. Also, the “analgesic activity (in words)” value in assay [2] is listed as “valuable analgesic activity”.
With `Cl.Cl.Clc1ccc2c(c1)C(c1ccccc1)N(CCN1CCOCC1)CCO2` (stereo not shown) [BL-5405, 7-Chloro-4-(2-morpholinoethyl)-5-phenyl-2,3,4,5-tetrahydro-1,4-benzoxazepine dihydrochloride], the inhibition in vivo at 10 mg/kg in assay [1] was found to be 30%. In addition, the ED50 in assay [2] (setting [5]) is over 40 mg/kg.
In assay [1], `Cl.Cl.Clc1ccc2c(c1)C(c1ccccc1)N(CCN1CCCCC1)CCO2` (stereo not shown) [BL-5409, 7-Chloro-4-(2-piperidinoethyl)-5-phenyl-2,3,4,5-tetrahydro-1,4-benzoxazepine dihydrochloride] registered an inhibition in vivo at 10 mg/kg of 0%. Further, the ED50 in assay [2] (setting [5]) is 9 mg/kg.
Take `CN1CCN(CCN2CCOc3ccc(Cl)cc3C2c2ccccc2)CC1.Cl.Cl.Cl` (stereo not shown) [BL-5451, 7-Chloro-4-[2-(4-methylpiperazino)ethyl]-5-phenyl-2,3,4,5-tetrahydro-1,4-benzoxazepine trihydrochloride]: the inhibition in vivo at 10 mg/kg in assay [1] was found to be 0%. Besides, the ED50 in assay [2] (setting [5]) stood at 19 mg/kg.
For `CN(C)CCN1CCOc2ccc(Cl)cc2C1c1ccccc1.Cl.Cl` (stereo not shown) [BL-R845, 7-Chloro-4-(2-dimethylaminoethyl)-5-phenyl-2,3,4,5-tetrahydro-1,4-benzoxazepine dihydrochloride], the ED50 is 12.8 mg/kg in assay [3] (setting [6]); 1 mg/kg in assay [3] (setting [7]); 2 to 5 mg/kg in the assay with cough in dogs (setting [8]); 0.2 to 0.5 mg/kg with cough in dogs (setting [9]); 0.31 mg/kg in assay [2] (setting [10]); 1.3 mg/kg in assay [2] (setting [11]). Moreover, the ED50 in assay [2] (setting [12]) was 11.6 mg/kg. The “analgesic activity, rat tail flick” value in the assay with rat tail flick is listed as “relative lack of analgesic activity”. Further, the “activity in the rodent writhing tests” value with rodent writhing was “good activity”. For the same molecule, in the assay with cough in dogs (dog, both routes of administration), the “antitussive activity compared with nefopam or codeine” value is on record as “more active than nefopam or codeine”. The “analgesic activity, mouse hot plate” value in the assay with mouse hot plate was “relative lack of analgesic activity”. The “effect of naloxone on analgesic activity” value in assay [4] is “does not block the analgesic activity”. In assay [1], this molecule gave an inhibition in vivo at 10 mg/kg of 48%. Besides, the “antitussive activity (in words)” value in assay [1] is “effective analgesic and antitussive agent”. The “analgesic activity (in words)” value in assay [2] was “effective analgesic”.
On to `COc1ccc2c3c1O[C@H]1[C@@H](O)C=C[C@H]4[C@@H](C2)N(C)CC[C@@]341` [codeine], for which the ED50 in the assay with cough in dogs (setting [8]) worked out at 7.8 mg/kg; with cough in dogs (setting [9]) it was 1.5 mg/kg.
In the case of `CN1CCOC(c2ccccc2)c2ccccc2C1` (stereo not shown) [nefopam, 5 methyl-1-phenyl-3,4,5,6-tetrahydro-1H-2,5-benzoxazocine, reference compound], the ED50 in assay [3] (setting [6]) was 9.6 mg/kg; in assay [3] (setting [7]) it was 1 mg/kg; in the assay on cough in dogs (setting [8]), over 20 mg/kg; with cough in dogs (setting [9]), 2 to 5 mg/kg; in assay [2] (setting [10]) it was 0.14 mg/kg; in assay [2] (setting [11]), 1.1 mg/kg. Moreover, in assay [2] (setting [12]), the median effective dose (ED50) was found to be 22 mg/kg. Besides, the “analgesic activity, rat tail flick” value in the assay with rat tail flick is reported as “relative lack of analgesic activity”. For the same molecule, the “activity in the rodent writhing tests” value with rodent writhing is listed as “good activity”. Also, in the assay with mouse hot plate, the “analgesic activity, mouse hot plate” value is “relative lack of analgesic activity”. In addition, the “effect of naloxone on analgesic activity” value in assay [4] is recorded as “does not block the analgesic activity”. In addition, the inhibition in vivo at 10 mg/kg in assay [1] was found to be 0%.

The values are drawn from patent US4125538A, “Substituted 5-phenyl-2,3,4,5-tetrahydro-1,4-benzoxazepines” (Bristol-Myers Company, priority 1977, dated 1978).
